Measurements reported in a flash point compilation (Sun et al. 2020).
Where “and” joins values, the source holds several entries; their conditions need not be identical. Equal values may be shown once.

How the values were obtained:
[1] = not given; remark: listed apart in the source
[2] = not given; remark: listed apart in the source
[3] = not given; remark: listed apart in the source
[4] = not given; remark: listed apart in the source

SMILES	flash point [2]	other results
C[Si]1(C)CCCCO1 [1,1-Dimethyl-1-sila-2-oxacyclohexane]		flash point: 14.00 °C
C=C[Si](C)(C)N[Si](C)(C)C=C [1,3-Divinyltetramethyldisilazane]		flash point: 34.00 °C
C1COCCO1 [1,4-dioxane]	18.33 °C	flash point [1]: 12.00 °C
CC(=O)c1ccccn1 [1-(2-pyridyl)ethanone]	76.00 °C	
CCCCOCCOCCOCCCC [1-[2-(2-butoxyethoxy)ethoxy]butane]	101.00 °C	flash point [1]: 118.00 °C
CC(Cl)OC(C)Cl (stereo unspecified) [1-chloro-1-(1-chloroethoxy)ethane]	55.00 °C	
ClCCOCCCl [1-chloro-2-(2-chloroethoxy)ethane]	55.00 °C	
COCCCl [1-chloro-2-methoxyethane]	15.00 °C	
Clc1ccc(Oc2ccccc2)cc1 [1-chloro-4-(phenoxy)benzene]	113.00 °C	
CC(O)CCl (stereo unspecified) [1-chloropropan-2-ol]	51.00 °C	
CC(C)CCOCCC(C)C [1-isopentyloxy-3-methylbutane]	46.00 °C	
COCC(C)O (stereo unspecified) [1-methoxypropan-2-ol]	33.00 °C	
OCC(CO)(CO)CO [2,2-bis(hydroxymethyl)propane-1,3-diol]	240.00 °C	
CCC(CC)(CO)CO [2,2-diethylpropane-1,3-diol]	107.00 °C	
CC(C)C(C)C(C)CO (stereo unspecified) [2,3,4-trimethylpentan-1-ol]	60.00 °C	
CC(C)(C)c1cccc(C(C)(C)C)n1 [2,6-ditert-butylpyridine]	72.00 °C	
OCCOCCO [2-(2-hydroxyethoxy)ethanol]	138.33 °C and 143.00 °C	
CCCCOCC1CO1 (stereo unspecified) [2-(butoxymethyl)oxirane]	41.00 °C	flash point [1]: 54.00 °C
CC(CO)(CO)CO [2-(hydroxymethyl)-2-methylpropane-1,3-diol]	160.00 °C	
c1ccc(OCC2CO2)cc1 (stereo unspecified) [2-(phenoxymethyl)oxirane]	115.00 °C	
C=C(CCl)C[Si](C)(C)C [2-Chloromethyl-3-trimethylsilyl-1-propene]		flash point: 43.00 °C
OCCOCCOCCO [2-[2-(2-hydroxyethoxy)ethoxy]ethanol]	162.78 °C	
CCCCC(CC)(CO)CO [2-butyl-2-ethylpropane-1,3-diol]	113.00 °C	
Nc1ccccc1Cl [2-chloroaniline]	98.00 °C	
Clc1ccccn1 [2-chloropyridine]	64.00 °C	flash point [3]: 66 °C

SMILES	flash point [2]	other results
CCN(CC)CCO [2-diethylaminoethanol]	51.50 °C	
CCC(CC)CO [2-ethylbutan-1-ol]	58.33 °C	flash point [1]: 53.00 °C
OCc1ccco1 [2-furylmethanol]	83.33 °C	
CCC(C)(C)O [2-methylbutan-2-ol]	20.00 °C	flash point [1]: 19.00 °C
CC(C)(C)CCO [3,3-dimethylbutan-1-ol]	29.00 °C	
C[Si](Cl)(Cl)CCCCl [3-Chloropropylmethyldichlorosilane]		flash point: 86.00 °C
Nc1cccc(Cl)c1 [3-chloroaniline]	118.00 °C	
CCCCC(C)(O)CC (stereo unspecified) [3-methylheptan-3-ol]	54.00 °C	
C=CC1CC=CCC1 (stereo unspecified) [4-vinylcyclohexene]	21.00 °C	
CCC(C)CC(O)CC (stereo unspecified) [5-methylheptan-3-ol]	54.00 °C	
C/C=C\C [(z)-but-2-ene]	-73.00 °C	
C[Si](C)(C)CBr [Bromomethyltrimethylsilane]		flash point: 16.00 °C
CCO[Si](C)(C)CCl [Chloromethyldimethylethoxysilane]		flash point: 26.00 °C
C[Si](Cl)(Cl)CCC#N [Cyanoethylmethyldichlorosilane]		flash point: 60.00 °C
Cl[SiH](Cl)C1CCCC1 [Cyclopentyldichlorosilane]		flash point: 43.00 °C
Cl[Si](Cl)(Cl)C1CCCC1 [Cyclopentyltrichlorosilane]		flash point: 77.00 °C
C[Si](C)(C)O[Si](C)(C)O[Si](C)(C)O[Si](C)(C)C [Decamethyltetrasiloxane]		flash point: 62.00 °C
C[Si](Cl)(Cl)C(Cl)Cl [Dichloromethylmethyldichlorosilane]		flash point: 28.00 °C
CC[Si](C)(Cl)CC [Diethylmethylchlorosilane]		flash point: 15.00 °C
CC[SiH2]CC [Diethylsilane]		flash point: -20.00 °C
C[SiH](C)c1c(F)c(F)c(F)c(F)c1F [Dimethyl(pentafluorophenyl) silane]		flash point: 40.00 °C
C[SiH](C)Cl [Dimethylchlorosilane]		flash point: -28.00 °C
CCO[Si](C)(C)OCC [Dimethyldiethoxysilane]		flash point: 11.00 °C
C=C[Si](C)(C)C=C [Divinyldimethylsilane]		flash point: 8.00 °C
CCO[Si](C)(C)C [Ethoxytrimethylsilane]		flash point: -27.00 °C

SMILES	flash point [2]	other results
CC[Si](Cl)(Cl)Cl [Ethyltrichlorosilane]		flash point: -10.00 °C
CC[Si](OC)(OC)OC [Ethyltrimethoxysilane]		flash point: 27.00 °C
CN([Si](C)(C)C)[Si](C)(C)C [Heptamethyldisilazane]		flash point: 27.00 °C
CN(C)C=O [N,N-dimethylformamide]	57.00 °C	flash point [1]: 67.00 °C
CCNCC [N-ethylethanamine]	-28.00 °C	flash point [1]: -29.00 °C
OCc1ccc(CO)cc1 [[4-(hydroxymethyl)phenyl]methanol]	187.80 °C	
C=CCOc1ccccc1 [allyloxybenzene]	62.00 °C	
CCC(C)O (stereo unspecified) [butan-2-ol]	22.22 °C	flash point [1]: 24.00 °C
CC(O)CCO (stereo unspecified) [butane-1,3-diol]	108.89 °C	
OCCCCO [butane-1,4-diol]	121.11 °C	
C1=CCCCC1 [cyclohexene]	-30.00 °C	flash point [4]: -17 °C; flash point [3]: -12 °C
CCCCCCCCCCO [decan-1-ol]	104.44 °C	flash point [1]: 82.00 °C
C=COCC [ethoxyethylene]	-46.00 °C	
CCCCCC(C)N (stereo unspecified) [heptan-2-amine]	54.00 °C	
CCCCCCO [hexan-1-ol]	73.89 °C	flash point [1]: 63.00 °C
C=CC(O)CCCCC (stereo unspecified) [oct-1-en-3-ol]	68.00 °C	
CCCCCCCCO [octan-1-ol]	90.56 °C	flash point [1]: 81.00 °C
CCCCCCC(C)O (stereo unspecified) [octan-2-ol]	85.00 °C	flash point [1]: 76.00 °C
CCCC(C)O (stereo unspecified) [pentan-2-ol]	40.56 °C	flash point [1]: 35.00 °C
OCCCCCO [pentane-1,5-diol]	129.44 °C	
OCCCO [propane-1,3-diol]	79.00 °C	
CCCCCCCCCCCCCCO [tetradecan-1-ol]	145.00 °C	flash point [1]: 141.00 °C
CCCCCCCCCCCCCO [tridecan-1-ol]	116.00 °C	flash point [1]: 121.00 °C
